In patent US11718604B2, “4-amino-6-(1,3-benzodioxole)picolinates and their use as herbicides” (Dow AgroSciences LLC, priority 2018, dated 2023):

How the values were obtained:
Type in all cases: in vivo
[1] = tested on: IPOHE: ivyleaf morningglory (Ipomoea hederacea); assay: Post-emergent herbicidal test, ivyleaf morningglory; conditions: post-emergence, 336 h, 14 days after application, read-out: Visual Growth Reduction (%) 14 Days After Application IPOHE; for pest or weed control at 17.5 g/ha: 17.5 g ai/ha; for pest or weed control at 35 g/ha: 35 g ai/ha; for pest or weed control at 70 g/ha: 70 g ai/ha; for pest or weed control at 140 g/ha: 140 g ai/ha
Summary of the method: (§1)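 Post-emergence foliar spray, 187 L/ha, 1st–2nd true leaf plants; vehicle acetone/DMSO/IPA/water + Atplus 411F + Triton X-155; solvent-blank controls; subirrigated; 14 d greenhouse, visual % injury.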

[2] = tested on: CYPES: yellow nutsedge (Cyperus esculentus); assay: Post-emergent herbicidal test, yellow nutsedge; conditions: post-emergence, 336 h, 14 days after application, read-out: Visual Growth Reduction (%) 14 Days After Application CYPES; for pest or weed control at 17.5 g/ha: 17.5 g ai/ha; for pest or weed control at 35 g/ha: 35 g ai/ha; for pest or weed control at 70 g/ha: 70 g ai/ha; for pest or weed control at 140 g/ha: 140 g ai/ha
Summary of the method: as §1

[3] = tested on: EPHHL: wild poinsettia (Euphorbia heterophylla); assay: Post-emergent herbicidal test, wild poinsettia; conditions: post-emergence, 336 h, 14 days after application, read-out: Visual Growth Reduction (%) 14 Days After Application EPHHL; for pest or weed control at 17.5 g/ha: 17.5 g ai/ha; for pest or weed control at 35 g/ha: 35 g ai/ha; for pest or weed control at 70 g/ha: 70 g ai/ha; for pest or weed control at 140 g/ha: 140 g ai/ha
Summary of the method: as §1

[4] = tested on: BRSNN: oilseed rape, canola (Brassica napus); assay: Post-emergent herbicidal test, oilseed rape; conditions: post-emergence, 336 h, 14 days after application, read-out: Visual Growth Reduction (%) 14 Days After Application BRSNN; for pest or weed control at 17.5 g/ha: 17.5 g ai/ha; for pest or weed control at 35 g/ha: 35 g ai/ha; for pest or weed control at 70 g/ha: 70 g ai/ha; for pest or weed control at 140 g/ha: 140 g ai/ha
Summary of the method: as §1

[5] = tested on: DIGSA: large crabgrass (Digitaria sanguinalis); assay: Post-emergent herbicidal test, large crabgrass; conditions: post-emergence, 336 h, 14 days after application, read-out: Visual Growth Reduction (%) 14 Days After Application DIGSA; for pest or weed control at 17.5 g/ha: 17.5 g ai/ha; for pest or weed control at 35 g/ha: 35 g ai/ha; for pest or weed control at 70 g/ha: 70 g ai/ha; for pest or weed control at 140 g/ha: 140 g ai/ha
Summary of the method: as §1

[6] = tested on: ABUTH: velvetleaf (Abutilon theophrasti); assay: Post-emergent herbicidal test, velvetleaf; conditions: post-emergence, 336 h, 14 days after application, read-out: Visual Growth Reduction (%) 14 Days After Application ABUTH; for pest or weed control at 17.5 g/ha: 17.5 g ai/ha; for pest or weed control at 35 g/ha: 35 g ai/ha; for pest or weed control at 70 g/ha: 70 g ai/ha; for pest or weed control at 140 g/ha: 140 g ai/ha
Summary of the method: as §1

[7] = tested on: ECHCG: barnyardgrass (Echinochloa crus-galli); assay: Post-emergent herbicidal test, barnyardgrass; conditions: post-emergence, 336 h, 14 days after application, read-out: Visual Growth Reduction (%) 14 Days After Application ECHCG; for pest or weed control at 17.5 g/ha: 17.5 g ai/ha; for pest or weed control at 35 g/ha: 35 g ai/ha; for pest or weed control at 70 g/ha: 70 g ai/ha; for pest or weed control at 140 g/ha: 140 g ai/ha
Summary of the method: as §1

[8] = tested on: CIRAR: Canada thistle (Cirsium arvense); assay: Post-emergent herbicidal test, Canada thistle; conditions: post-emergence, 336 h, 14 days after application, read-out: Visual Growth Reduction (%) 14 Days After Application CIRAR; for pest or weed control at 17.5 g/ha: 17.5 g ai/ha; for pest or weed control at 35 g/ha: 35 g ai/ha; for pest or weed control at 70 g/ha: 70 g ai/ha; for pest or weed control at 140 g/ha: 140 g ai/ha
Summary of the method: as §1

[9] = tested on: SORVU: shattercane (Sorghum bicolor); assay: Post-emergent herbicidal test, shattercane; conditions: post-emergence, 336 h, 14 days after application, read-out: Visual Growth Reduction (%) 14 Days After Application SORVU; for pest or weed control at 17.5 g/ha: 17.5 g ai/ha; for pest or weed control at 35 g/ha: 35 g ai/ha; for pest or weed control at 70 g/ha: 70 g ai/ha; for pest or weed control at 140 g/ha: 140 g ai/ha
Summary of the method: as §1

[10] = tested on: VIOTR: wild violet (Viola tricolor); assay: Post-emergent herbicidal test, wild violet; conditions: post-emergence, 336 h, 14 days after application, read-out: Visual Growth Reduction (%) 14 Days After Application VIOTR; for pest or weed control at 17.5 g/ha: 17.5 g ai/ha; for pest or weed control at 35 g/ha: 35 g ai/ha; for pest or weed control at 70 g/ha: 70 g ai/ha; for pest or weed control at 140 g/ha: 140 g ai/ha
Summary of the method: as §1

[11] = tested on: SETFA: giant foxtail (Setaria faberi); assay: Post-emergent herbicidal test, giant foxtail; conditions: post-emergence, 336 h, 14 days after application, read-out: Visual Growth Reduction (%) 14 Days After Application SETFA; for pest or weed control at 17.5 g/ha: 17.5 g ai/ha; for pest or weed control at 35 g/ha: 35 g ai/ha; for pest or weed control at 70 g/ha: 70 g ai/ha; for pest or weed control at 140 g/ha: 140 g ai/ha
Summary of the method: as §1

COC(=O)c1nc(-c2ccc(Br)c3c2OC(F)(F)O3)c(F)c(N)c1Cl [Compound 9]
pest or weed control at 17.5 g/ha [1]: 0% | pest or weed control at 35 g/ha [1]: 0% | pest or weed control at 70 g/ha [1]: 0% | pest or weed control at 140 g/ha [1]: 0% | pest or weed control at 17.5 g/ha [2]: 0% | pest or weed control at 35 g/ha [2]: 0% | pest or weed control at 70 g/ha [2]: 0% | pest or weed control at 140 g/ha [2]: 0% | pest or weed control at 17.5 g/ha [3]: 0% | pest or weed control at 35 g/ha [3]: 0% | pest or weed control at 70 g/ha [3]: 0% | pest or weed control at 140 g/ha [3]: 0% | pest or weed control at 17.5 g/ha [4]: 60% | pest or weed control at 35 g/ha [4]: 60% | pest or weed control at 70 g/ha [4]: 75% | pest or weed control at 140 g/ha [4]: 75% | pest or weed control at 17.5 g/ha [5]: 0% | pest or weed control at 35 g/ha [5]: 0% | pest or weed control at 70 g/ha [5]: 0% | pest or weed control at 140 g/ha [5]: 0% | pest or weed control at 17.5 g/ha [6]: 80% | pest or weed control at 35 g/ha [6]: 85% | pest or weed control at 70 g/ha [6]: 85% | pest or weed control at 140 g/ha [6]: 85% | pest or weed control at 17.5 g/ha [7]: 0% | pest or weed control at 35 g/ha [7]: 0% | pest or weed control at 70 g/ha [7]: 0% | pest or weed control at 140 g/ha [7]: 0% | pest or weed control at 17.5 g/ha [8]: 70% | pest or weed control at 35 g/ha [8]: 80% | pest or weed control at 70 g/ha [8]: 85% | pest or weed control at 140 g/ha [8]: 85% | pest or weed control at 17.5 g/ha [9]: 0% | pest or weed control at 35 g/ha [9]: 0% | pest or weed control at 70 g/ha [9]: 10% | pest or weed control at 140 g/ha [9]: 10% | pest or weed control at 17.5 g/ha [10]: 0% | pest or weed control at 35 g/ha [10]: 0% | pest or weed control at 70 g/ha [10]: 20% | pest or weed control at 140 g/ha [10]: 20% | pest or weed control at 17.5 g/ha [11]: 0% | pest or weed control at 35 g/ha [11]: 0% | pest or weed control at 70 g/ha [11]: 0% | pest or weed control at 140 g/ha [11]: 0%

COC(=O)c1nc(-c2ccc(I)c3c2OC(F)(F)O3)c(F)c(N)c1Cl [Compound 10]
pest or weed control at 17.5 g/ha [1]: 0% | pest or weed control at 35 g/ha [1]: 0% | pest or weed control at 70 g/ha [1]: 0% | pest or weed control at 140 g/ha [1]: 0% | pest or weed control at 17.5 g/ha [2]: 0% | pest or weed control at 35 g/ha [2]: 0% | pest or weed control at 70 g/ha [2]: 0% | pest or weed control at 140 g/ha [2]: 0% | pest or weed control at 17.5 g/ha [3]: 0% | pest or weed control at 35 g/ha [3]: 0% | pest or weed control at 70 g/ha [3]: 0% | pest or weed control at 140 g/ha [3]: 0% | pest or weed control at 17.5 g/ha [4]: 50% | pest or weed control at 35 g/ha [4]: 60% | pest or weed control at 70 g/ha [4]: 65% | pest or weed control at 140 g/ha [4]: 70% | pest or weed control at 17.5 g/ha [5]: 0% | pest or weed control at 35 g/ha [5]: 0% | pest or weed control at 70 g/ha [5]: 0% | pest or weed control at 140 g/ha [5]: 0% | pest or weed control at 17.5 g/ha [6]: 65% | pest or weed control at 35 g/ha [6]: 70% | pest or weed control at 70 g/ha [6]: 75% | pest or weed control at 140 g/ha [6]: 75% | pest or weed control at 17.5 g/ha [7]: 0% | pest or weed control at 35 g/ha [7]: 0% | pest or weed control at 70 g/ha [7]: 0% | pest or weed control at 140 g/ha [7]: 0% | pest or weed control at 17.5 g/ha [8]: 60% | pest or weed control at 35 g/ha [8]: 70% | pest or weed control at 70 g/ha [8]: 70% | pest or weed control at 140 g/ha [8]: 75% | pest or weed control at 17.5 g/ha [9]: 0% | pest or weed control at 35 g/ha [9]: 0% | pest or weed control at 70 g/ha [9]: 0% | pest or weed control at 140 g/ha [9]: 0% | pest or weed control at 17.5 g/ha [10]: 0% | pest or weed control at 35 g/ha [10]: 0% | pest or weed control at 70 g/ha [10]: 0% | pest or weed control at 140 g/ha [10]: 0% | pest or weed control at 17.5 g/ha [11]: 0% | pest or weed control at 35 g/ha [11]: 0% | pest or weed control at 70 g/ha [11]: 0% | pest or weed control at 140 g/ha [11]: 0%
